Assay results: article PMC7909954 (eLife, 2021)
Values joined by “and” are separate entries in the source; they are usually repeats but may differ in a detail not shown here. Equal values may be shown once. Read-outs that look alike come from different tables or passages of the source.

Tests used:
MOR [1] = biological target: T1, MOR (Homo sapiens, UniProt P35372)
DOR [2] = biological target: T2, DOR (Homo sapiens, UniProt P41143); assay: cell-based; details: for EC50: Tango; for Emax: HTLA, read-out: Emax% arrestin recruitment hDOR
rKOR [3] = biological target: T3, rKOR (Rattus norvegicus, UniProt P34975); assay: cell-based; details: HEK-293T, read-out: Emax% arrestin recruitment (BRET) rKOR
DOR [4] = biological target: T2, DOR; assay: cell-based; details: for Emax: HEK-293T, read-out: Emax% cAMP inhibition hDOR
mKOR [5] = biological target: T4, mKOR (Mus musculus, UniProt P33534); assay: biochemical
rKOR [6] = biological target: T3, rKOR; assay: cell-based; details: HEK-293T, read-out: Emax% G protein activation (BRET) rKOR
rKOR [7] = biological target: T3, rKOR; details: for ΔlogRA BRET-G rKOR / ΔlogRA BRET-arr rKOR: vs U50,488h
KOR [8] = biological target: T5, KOR (Homo sapiens, UniProt P41145); assay: cell-based; details: for EC50: EC50 arrestin recruitment (Tango) hKOR; for Emax: HTLA, read-out: Emax% arrestin recruitment (Tango) hKOR
mDOR [9] = biological target: T6, mDOR (Mus musculus, UniProt P32300); assay: biochemical; details: for Emax: read-out: Emax mDOR [35S]GTPγS
mDOR [10] = biological target: T6, mDOR; assay: cell-based; details: for EC50: EC50 G protein activation (BRET) mDOR; for Emax: HEK-293T, read-out: Emax% G protein activation (BRET) mDOR
KOR [11] = biological target: T5, KOR; details: for Bias factor (cAMP-Tango) hKOR: >1 G protein bias, <1 arrestin bias; for Bias factor (cAMP-Tango) hKOR / ΔlogRA Tango hKOR / ΔlogRA cAMP hKOR: vs U50,488h; for Log RA cAMP hKOR / LogRA Tango hKOR: transduction coefficient log(T/KA)
KOR [12] = biological target: T5, KOR; assay: cell-based; details: for Emax: HEK-293T, read-out: Emax% cAMP inhibition hKOR
mKOR [13] = biological target: T4, mKOR; assay: biochemical; details: for EC50: EC50 mKOR [35S]GTPγS, ± SEM; for Emax: read-out: Emax mKOR [35S]GTPγS
mMOR [14] = biological target: T7, mMOR (Mus musculus, UniProt P42866); assay: cell-based; details: for Emax: HEK-293T, read-out: Emax% G protein activation (BRET) mMOR
mMOR [15] = biological target: T7, mMOR; assay: biochemical
MOR [16] = biological target: T1, MOR; assay: cell-based; details: for Emax: HTLA, read-out: Emax% arrestin recruitment (Tango) hMOR
mMOR [17] = biological target: T7, mMOR; assay: biochemical; details: for EC50: EC50 mMOR [35S]GTPγS, ± SEM; for Emax: read-out: Emax mMOR [35S]GTPγS
MOR [18] = biological target: T1, MOR; assay: cell-based; details: for Emax: HEK-293T, read-out: Emax% cAMP inhibition hMOR
mDOR [19] = biological target: T6, mDOR; assay: cell-based; details: for Emax: HEK-293T, read-out: Emax% arrestin recruitment (BRET) mDOR
mMOR [20] = biological target: T7, mMOR; assay: cell-based; parameters: expressed in transfected cells; host or cells: HEK-293T
[21] = EC50 G protein activation (BRET) mMOR
[22] = EC50 arrestin recruitment (BRET) mDOR

T7 sequence (P42866 whole entry): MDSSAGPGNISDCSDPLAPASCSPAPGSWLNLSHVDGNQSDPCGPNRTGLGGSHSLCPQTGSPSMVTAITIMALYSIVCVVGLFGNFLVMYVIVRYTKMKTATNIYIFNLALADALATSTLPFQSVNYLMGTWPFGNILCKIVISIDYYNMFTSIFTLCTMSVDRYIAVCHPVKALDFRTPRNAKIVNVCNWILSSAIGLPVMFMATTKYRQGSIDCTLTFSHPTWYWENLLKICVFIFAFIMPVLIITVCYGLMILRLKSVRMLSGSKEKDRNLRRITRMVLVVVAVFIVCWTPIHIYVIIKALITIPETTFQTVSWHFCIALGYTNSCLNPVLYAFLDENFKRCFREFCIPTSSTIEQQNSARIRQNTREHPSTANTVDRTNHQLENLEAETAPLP
T6 sequence (P32300 whole entry): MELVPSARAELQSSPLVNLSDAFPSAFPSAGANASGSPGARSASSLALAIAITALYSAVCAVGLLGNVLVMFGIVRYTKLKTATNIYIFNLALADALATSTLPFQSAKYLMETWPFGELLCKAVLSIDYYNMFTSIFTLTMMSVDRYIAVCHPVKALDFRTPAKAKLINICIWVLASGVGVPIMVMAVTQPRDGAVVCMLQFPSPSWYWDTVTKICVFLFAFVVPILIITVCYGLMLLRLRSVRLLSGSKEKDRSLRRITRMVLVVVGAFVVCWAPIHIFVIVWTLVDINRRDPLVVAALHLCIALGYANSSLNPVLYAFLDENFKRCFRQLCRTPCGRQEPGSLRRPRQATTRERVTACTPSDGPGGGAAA
T5 sequence (P41145 whole entry): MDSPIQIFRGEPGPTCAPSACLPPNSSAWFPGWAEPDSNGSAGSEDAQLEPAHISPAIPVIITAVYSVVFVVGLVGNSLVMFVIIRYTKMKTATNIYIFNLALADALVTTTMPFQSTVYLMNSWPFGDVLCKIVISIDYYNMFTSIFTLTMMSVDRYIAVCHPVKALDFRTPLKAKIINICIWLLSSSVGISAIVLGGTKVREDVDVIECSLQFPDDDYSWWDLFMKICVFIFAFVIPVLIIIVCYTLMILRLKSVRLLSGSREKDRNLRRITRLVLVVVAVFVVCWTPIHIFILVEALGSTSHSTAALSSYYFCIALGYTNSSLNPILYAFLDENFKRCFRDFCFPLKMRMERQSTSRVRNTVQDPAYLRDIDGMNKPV
T4 sequence (P33534 whole entry): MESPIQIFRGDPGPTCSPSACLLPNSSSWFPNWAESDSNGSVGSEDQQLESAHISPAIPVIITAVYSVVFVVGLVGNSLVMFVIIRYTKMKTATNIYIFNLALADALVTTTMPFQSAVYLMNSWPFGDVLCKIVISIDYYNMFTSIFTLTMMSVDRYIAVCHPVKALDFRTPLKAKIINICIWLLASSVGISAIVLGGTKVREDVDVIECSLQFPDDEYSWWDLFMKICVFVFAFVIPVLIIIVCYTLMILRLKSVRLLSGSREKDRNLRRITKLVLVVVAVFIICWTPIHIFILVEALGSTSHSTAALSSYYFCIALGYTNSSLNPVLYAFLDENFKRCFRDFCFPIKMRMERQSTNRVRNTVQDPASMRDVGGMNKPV
T2 sequence (P41143 whole entry): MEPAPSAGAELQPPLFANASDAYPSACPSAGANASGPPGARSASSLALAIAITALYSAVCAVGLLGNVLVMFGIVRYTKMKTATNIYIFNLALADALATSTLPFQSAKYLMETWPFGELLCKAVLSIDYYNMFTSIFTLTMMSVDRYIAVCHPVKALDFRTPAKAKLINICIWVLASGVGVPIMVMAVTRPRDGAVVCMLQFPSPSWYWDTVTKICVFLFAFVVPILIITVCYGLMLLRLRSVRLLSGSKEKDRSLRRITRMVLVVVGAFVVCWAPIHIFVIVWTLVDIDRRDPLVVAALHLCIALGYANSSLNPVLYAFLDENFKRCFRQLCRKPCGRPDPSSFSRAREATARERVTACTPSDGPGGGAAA
T1 sequence (P35372 whole entry): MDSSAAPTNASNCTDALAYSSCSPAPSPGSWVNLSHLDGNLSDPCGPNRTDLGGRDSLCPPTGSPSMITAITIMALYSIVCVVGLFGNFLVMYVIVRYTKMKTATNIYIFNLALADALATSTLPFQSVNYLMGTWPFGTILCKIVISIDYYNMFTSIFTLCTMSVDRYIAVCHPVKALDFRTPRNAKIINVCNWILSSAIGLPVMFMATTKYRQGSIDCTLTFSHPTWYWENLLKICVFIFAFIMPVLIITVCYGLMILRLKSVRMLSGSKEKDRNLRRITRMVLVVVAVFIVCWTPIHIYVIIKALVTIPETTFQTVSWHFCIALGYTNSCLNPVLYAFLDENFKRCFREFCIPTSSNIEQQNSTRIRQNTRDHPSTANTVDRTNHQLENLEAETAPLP
T3 sequence (P34975 whole entry): as the sequence (P33534 whole entry) above, with D11E, S17A, S51P, A308V counted along it

Structure (SMILES): O=C(N[C@@H]1CC[C@@]2(O)C3Cc4ccc(O)cc4[C@@]2(CCN3CC2CC2)C1)c1cccc(I)c1 [MP1601, N-((4bR,6R,8aS)−11-(Cyclopropylmethyl)−3,8a-dihydroxy-6,7,8,8a,9,10-hexahydro-5H-9,4b-(epiminoethano)phenanthren-6-yl)−3-iodobenzamide]
- Bias factor (cAMP-Tango) hMOR (MOR [1]): 4
- Log RA cAMP hMOR (MOR [1]): 9.84±0.002
- LogRA Tango hMOR (MOR [1]): 7.65±0.035
- ΔlogRA Tango hMOR (MOR [1]): 0.87±0.036
- ΔlogRA cAMP hMOR (MOR [1]): 1.44±0.002
- ΔΔlog RA (cAMP-Tango) hMOR (MOR [1]): 0.57±0.036
- EC50 (DOR [2]; EC50 arrestin recruitment hDOR): 86.7 nM
- Emax (DOR [2]): 203 ± 5.4%
- Emax (rKOR [3]): 37 ± 3%
- EC50 (DOR [4]; EC50 cAMP inhibition hDOR): 2.76 nM
- Emax (DOR [4]): 106 ± 2.3%
- Ki (mKOR [5]): 2.13 ± 0.3 nM
- Emax (rKOR [6]): 75 ± 3%
- Log RA BRET-G rKOR (rKOR [7]): 7.917±0.018
- LogRA BRET-Arr rKOR (rKOR [7]): 7.113±0.052
- ΔΔlog RA (BRETG-BRETArr) rKOR (rKOR [7]): -0.006±0.057
- ΔlogRA BRET-G rKOR (rKOR [7]): 0.324±0.052
- ΔlogRA BRET-arr rKOR (rKOR [7]): 0.33±0.052
- EC50 (KOR [8]): 3.23 nM
- Emax (KOR [8]): 107 ± 3%
- Emax (mDOR [9]): 67 ± 3.9%
- EC50 (mDOR [10]): 6.27 nM
- Emax (mDOR [10]): 105 ± 6.7%
- ΔΔlog RA (cAMP-Tango) hKOR (KOR [11]): -0.282±0.023
- Bias factor (cAMP-Tango) hKOR (KOR [11]): 0.5 and 0.52
- Log RA cAMP hKOR (KOR [11]): 9.85±0.014
- LogRA Tango hKOR (KOR [11]): 8.51±0.009
- ΔlogRA Tango hKOR (KOR [11]): 0.097±0.012
- ΔlogRA cAMP hKOR (KOR [11]): -0.19±0.020
- Emax (KOR [12]): 109 ± 1%
- EC50 (KOR [12]; pEC50 cAMP inhibition hKOR, ± SEM): 174 pM
- EC50 (mKOR [13]): 3 ± 0.7 nM
- Emax (mKOR [13]): 72 ± 4.5%
- EC50 (mMOR [14]; [21]): 2.2 nM
- Emax (mMOR [14]): 49 ± 3%
- EC50 (mMOR [14]; pEC50 G protein activation (BRET) mMOR): 2.51 nM
- Ki (mMOR [15]): 0.2 ± 0.01 nM
- EC50 (MOR [16]): 4.02 nM
- Emax (MOR [16]): 27 ± 2%
- EC50 (mMOR [17]): 0.5 ± 0.2 nM
- Emax (mMOR [17]): 45 ± 4.6%
- EC50 (MOR [18]; EC50 cAMP inhibition hMOR): 0.1 nM
- Emax (MOR [18]): 69 ± 1%
- EC50 (MOR [18]; pEC50 cAMP inhibition hMOR): 0.102 nM
- EC50 (mDOR [19]; [22]): 9 nM
- Emax (mDOR [19]): 16 ± 1.4%

Structure (SMILES): O=C(NC1CCC2(O)C3Cc4ccc(O)c5c4C2(CCN3CC2CC2)C1O5)c1cccc(I)c1 (stereo not shown) [IBNtxA]
- Bias factor (cAMP-Tango) hMOR (MOR [1]): 24
- Log RA cAMP hMOR (MOR [1]): 9.99±0.081
- LogRA Tango hMOR (MOR [1]): 7.572±0.25
- ΔlogRA Tango hMOR (MOR [1]): -0.25±0.25
- ΔlogRA cAMP hMOR (MOR [1]): 1.14±0.11
- ΔΔlog RA (cAMP-Tango) hMOR (MOR [1]): 1.38±0.28
- EC50 (DOR [2]; EC50 arrestin recruitment hDOR): 14.1 nM
- Emax (DOR [2]): 224 ± 5%
- EC50 (DOR [2]; pEC50 arrestin recruitment hDOR, ± SEM): 15.8 nM
- Emax (rKOR [3]): 133 ± 7.3%
- EC50 (DOR [4]; EC50 cAMP inhibition hDOR): 0.43 nM
- Emax (DOR [4]): 106 ± 1%
- EC50 (DOR [4]; pEC50 cAMP inhibition hDOR, ± SEM): 0.501 nM
- Emax (rKOR [6]): 101 ± 2.3%
- Log RA BRET-G rKOR (rKOR [7]): 10.19±0.141
- LogRA BRET-Arr rKOR (rKOR [7]): 8.846±0.266
- ΔΔlog RA (BRETG-BRETArr) rKOR (rKOR [7]): -0.218±0.388
- ΔlogRA BRET-G rKOR (rKOR [7]): 2.64±0.175
- ΔlogRA BRET-arr rKOR (rKOR [7]): 2.858±0.346
- EC50 (KOR [8]): 0.013 nM
- Emax (KOR [8]): 109 ± 1.8%
- EC50 (mDOR [9]): 4.08 ± 0.67 nM
- Emax (mDOR [9]): 95 ± 2%
- EC50 (mDOR [10]): 0.48 nM
- Emax (mDOR [10]): 108 ± 3.7%
- ΔΔlog RA (cAMP-Tango) hKOR (KOR [11]): -1.002±0.052
- Bias factor (cAMP-Tango) hKOR (KOR [11]): 0.1
- Log RA cAMP hKOR (KOR [11]): 11.59±0.036
- LogRA Tango hKOR (KOR [11]): 10.89±0.010
- ΔlogRA Tango hKOR (KOR [11]): 2.53±0.015
- ΔlogRA cAMP hKOR (KOR [11]): 1.53±0.050
- EC50 (KOR [12]; EC50 cAMP inhibition hKOR, cell printed in pM): 2.46 pM
- Emax (KOR [12]): 101 ± 1.79%
- EC50 (mMOR [20]): 11300 nM
- Emax (mMOR [20]; HEK-293T, read-out: Emax% arrestin recruitment (BRET) mMOR): 75%
- EC50 (mKOR [13]): 0.22 ± 0.02 nM
- Emax (mKOR [13]): 102 ± 4%
- EC50 (mMOR [14]; [21]): 0.054 nM
- Emax (mMOR [14]): 59%
- EC50 (MOR [16]): 5.86 nM
- Emax (MOR [16]): 29 ± 0.02%
- EC50 (mMOR [17]): 0.49 ± 0.12 nM
- Emax (mMOR [17]): 101 ± 3%
- EC50 (MOR [18]; EC50 cAMP inhibition hMOR): 0.07 nM
- Emax (MOR [18]): 95 ± 2%
- EC50 (mDOR [19]; [22]): 26.6 nM
- Emax (mDOR [19]): 88 ± 6.8%
- EC50 (mDOR [19]; pEC50 arrestin recruitment (BRET) mDOR, ± SEM): 31.6 nM
